In PMC8662641, “Site-Specific Labeling of Endogenous Proteins Using CoLDR Chemistry” (Journal of the American Chemical Society, 2021):

How the values were obtained:
BTK = BTK (Homo sapiens, UniProt Q06187); assay: In-gel fluorescence labeling profile in Mino cells; details: 2 h incubation, in-gel fluorescence
BTK kinase domain = BTK kinase domain (Homo sapiens, UniProt Q06187); assay: Labeling of recombinant BTK by intact protein LC/MS; type: binding; design: BTK kinase domain was expressed and purified as previously reported; made in house; details: BTK 10.7 µM, 20 µM compound, 1 hour
Chain of BTK kinase domain (Q06187 402-655 limits assumed): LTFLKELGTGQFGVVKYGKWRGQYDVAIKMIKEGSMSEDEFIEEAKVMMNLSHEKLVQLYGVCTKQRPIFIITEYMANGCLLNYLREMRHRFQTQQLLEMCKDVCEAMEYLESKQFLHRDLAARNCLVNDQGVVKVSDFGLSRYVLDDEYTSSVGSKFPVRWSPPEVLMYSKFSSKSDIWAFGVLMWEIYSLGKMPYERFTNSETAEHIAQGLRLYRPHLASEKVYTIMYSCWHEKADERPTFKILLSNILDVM

Chain of BTK (Q06187 whole entry, the tested form may be a part): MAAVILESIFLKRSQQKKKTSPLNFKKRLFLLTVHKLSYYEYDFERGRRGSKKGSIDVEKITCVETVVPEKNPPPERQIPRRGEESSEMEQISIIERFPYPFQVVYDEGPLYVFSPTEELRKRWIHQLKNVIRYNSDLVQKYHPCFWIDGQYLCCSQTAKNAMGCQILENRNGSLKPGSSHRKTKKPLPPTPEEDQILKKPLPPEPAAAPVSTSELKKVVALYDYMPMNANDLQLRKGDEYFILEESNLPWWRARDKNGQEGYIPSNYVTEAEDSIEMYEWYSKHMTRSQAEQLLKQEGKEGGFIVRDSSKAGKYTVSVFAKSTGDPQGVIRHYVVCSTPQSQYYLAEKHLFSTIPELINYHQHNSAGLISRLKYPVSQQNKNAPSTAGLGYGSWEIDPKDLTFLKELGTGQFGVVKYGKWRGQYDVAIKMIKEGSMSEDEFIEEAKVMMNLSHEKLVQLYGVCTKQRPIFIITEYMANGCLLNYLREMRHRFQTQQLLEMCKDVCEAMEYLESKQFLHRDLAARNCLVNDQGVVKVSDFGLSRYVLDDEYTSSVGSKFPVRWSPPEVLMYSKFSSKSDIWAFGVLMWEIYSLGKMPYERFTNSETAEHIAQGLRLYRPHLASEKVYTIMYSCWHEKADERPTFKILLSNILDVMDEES

labeling of BTK (SPR sample preparation) (BTK kinase domain): 100%
SMILES: C#CCCNC(=O)C(=C)CN1CCC[C@@H](n2nc(-c3ccc(Oc4ccccc4)cc3)c3c(N)ncnc32)C1 [1b]
labeling of BTK in live Mino cells (BTK): robust labeling even at a concentration of 10 nM
